Test results taken from paper PMC12308784, “Organometallic Half-Sandwich Complexes of 1,10-Phenanthroline Derivatives with Improved Solubility, Albumin-Binding, and Nanoformulation Potential Targeting Drug Resistance in Cancer” (Inorganic Chemistry, 2025).

Assay: release in PBS’ by modified equilibrium dialysis
Assay type: physicochemical
Conditions: nonformulated complex, PBS’ pH 7.4
Method: The release behavior of RhCp*BP in PBS’ buffer (pH = 7.4) was monitored using a modified equilibrium dialysis device (Figures S22 and S23), and the absorbance (proportional to the complex concentration) was measured for the dialysate phase by online UV–vis spectrophotometry over a period of 16 h.
The release experiments were conducted in PBS’ medium using modified rapid equilibrium dialysis (RED) inserts of Thermo Scientific. Briefly, the receiver compartment of the RED insert was removed in order to fit the dialysis bag into a regular 1 cm quartz cuvette (see Figure S19 for the layout). The dialysis bag (donor compartment) contained 300 μL of aqueous solution of the formulation or the metal complex alone (c = 60 μM) or the HSA or HTP-based formulations. The cuvette was the acceptor/receiver compartment containing PBS’ buffer (2.0 mL). The whole device was capped with the parafilm and the buffer in the cuvette was continuously stirred; no stirring was applied in the RED insert. The release of the complex into the buffer was monitored online using an Agilent Cary 3500 eight-channel photometer. All samples were done in duplicate.

## [Rh(III)(η^5-C5Me5)(bathophenanthroline)Cl]Cl [RhCp*BP]
  time for complete diffusion into PBS’ medium: approximately 9 h
